Earlier results, collected in patent US20070065511A1, “Controlled delivery creatine formulations and method of using the same” (priority 2004, published 2007).
Read-outs that look alike come from different tables or passages of the source.

Experiments:
[1] = ingestion of 20 to 30 g per day for several days

CN(CC(=O)O)C(=N)N [CRE, creatine]
SC/fibre, time effect from baseline (satellite cell (SC); week 4 of supplementation and resistance training): 111%
SC/fibre, time effect from baseline (satellite cell (SC); week 8 of supplementation and resistance training): 93%
SC/fibre compared to baseline (satellite cell (SC); week 16): no difference

CN(CC(=O)O)C(=N)N.O [creatine monohydrate]
increase in human skeletal muscle total creatine content [1]: greater than 20%
